Assay results published in patent US8269024B2, “Compounds and methods for modulating communication and virulence in quorum sensing bacteria” (priority 2005, dated 2012).
Where two headings read alike, the source gives them in different places. Marks after values point to notes of the source that are not given here.

Tests used:
[1] = molecular target: T1, LasR (Pseudomonas aeruginosa, UniProt P25084); test: Pseudomonas aeruginosa reporter gene assay, PAO-JP2(plasI-LVAgfp), GFP fluorescence readout; format: cell-based; conditions: for P. aeruginosa Relative fluorescence [%] 12.5 μM / P. aeruginosa Relative fluorescence [%] 400 μM: antagonism, relative to agonism by 8d at 1 μM set to 100%; for P. aeruginosa Relative fluorescence [%] 12.5 μM: compound at 12.5 μM screened against 1 μM 8d; for P. aeruginosa Relative fluorescence [%] 400 μM: compound at 400 μM screened against 1 μM 8d; for antagonism against LasR in P. aeruginosa: antagonism screen in presence of native ligand 8d; for activity relative to the three controls (7g, 8f, 9): at 400 μM
T1 construct: Both of these reporter strains lack their native AHL synthases, yet retain active LuxR-type receptors (LasR and TraR proteins, respectively); endogenous in cells; host or cells: P. aeruginosa PAO-JP2(plasI-LVAgfp)
T1 sequence (P25084 whole entry): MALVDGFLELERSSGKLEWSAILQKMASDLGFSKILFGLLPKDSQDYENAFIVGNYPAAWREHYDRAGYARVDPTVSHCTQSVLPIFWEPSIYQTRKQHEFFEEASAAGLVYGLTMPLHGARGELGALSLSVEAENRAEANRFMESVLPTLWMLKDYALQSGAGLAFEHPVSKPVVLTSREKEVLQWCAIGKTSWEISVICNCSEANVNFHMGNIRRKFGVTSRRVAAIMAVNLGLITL
Source text: (§1) The AHL library constructed by the schema described above, was screened in two bacterial reporter strains for antagonism of quorum sensing: 1) P. aeruginosa PAO-JP2(plasI-LVAgfp), (De Kievit, T. R.; Gillis, R.; Marx, S.; Brown, C.; Iglewski, B. H. Appl. Environ. Microbiol. 2001, 67, 1865-1873) and 2) A. tumefaciens WCF47 (pCF372). Examination of these two strains was valuable for two reasons: 1) the direct clinical relevance of P. aeruginosa, and 2), the extensive body of biochemical and structural data for TraR in A. tumefaciens. Both of these reporter strains lack their native AHL synthases, yet retain active LuxR-type receptors (LasR and TraR proteins, respectively); exogenous ligand is required for receptor activation, which can be measured by fluorescence (green fluorescent protein (GFP) for LasR) or absorbance (via β-galactosidase activity for TraR) measurements.
An appropriate amount of concentrated stock solution, to give a final concentration of 1 μM, was added to a polypropylene 96-well plate, and the solvent was allowed to evaporate. An overnight culture of P. aeruginosa PAO-JP2(plasI-LVAgfp) was diluted to an OD600 of 0.1 in fresh LB medium containing 200 μg/mL carbenicillin. 200 μL of the diluted culture was added to each well of the plate and incubated at 37° C. for 6 h in a rotary shaking incubator (200 rpm). Cultures were transferred to a polystyrene 96-well plate, GFP expression was measured using a plate reader, and this value was normalized to cell density. Similar methods were used for antagonism assays, illustrated in FIG. […] All assays were performed in triplicate.

[2] = molecular target: T2, TraR (Agrobacterium tumefaciens, UniProt P33905); test: Agrobacterium tumefaciens reporter gene assay, WCF47(pCF372), β-galactosidase (Miller) readout; format: cell-based; conditions: for A. tumefaciens β-galactosidase activity [Miller units] 100 nM: antagonism, compound at 100 nM screened against 100 nM 8b, strain WCF47(pCF372)
T2 construct: Both of these reporter strains lack their native AHL synthases, yet retain active LuxR-type receptors (LasR and TraR proteins, respectively); endogenous in cells; host or cells: A. tumefaciens WCF47(pCF372)
T2 sequence (P33905 whole entry): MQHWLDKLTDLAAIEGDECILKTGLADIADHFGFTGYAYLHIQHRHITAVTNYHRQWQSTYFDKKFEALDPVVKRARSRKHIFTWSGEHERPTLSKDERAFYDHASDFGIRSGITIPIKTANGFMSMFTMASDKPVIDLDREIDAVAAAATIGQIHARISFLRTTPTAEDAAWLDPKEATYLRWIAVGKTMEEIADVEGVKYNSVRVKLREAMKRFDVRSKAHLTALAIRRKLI

[3] = molecular target: T2, TraR; test: as above; format: cell-based; conditions: for A. tumefaciens β-galactosidase activity [Miller units] 10^4 nM: antagonism, compound at 10^4 nM screened against 100 nM 8b, strain WCF47(pCF372); for activity against TraR in A. tumefaciens: antagonism screen in presence of native ligand 8b; for activity relative to previously reported antagonists 7g, 8f and 9: controls at 10 μM
Source text: as §1
An appropriate amount of concentrated AHL stock solution, to give a final concentration of 100 nM, was added to an empty culture tube, and the solvent was allowed to evaporate. An overnight culture of A. tumefaciens WCF47(pCF372) was diluted to an OD600 (optical density) of 0.1 in fresh AB minimal medium containing 400 μg/mL octopine and 50 μg/mL streptomycin. A 1 mL portion of the diluted culture was added to the tubes containing AHLs. Tubes were grown at 28° C. for 12-16 h in a rotary shaking incubator (200 rpm).
The cultures were then assayed for β-galactosidase activity following the Miller assay method. Briefly, 100 μL aliquots of bacteria from each of the tubes were added to wells of a polystyrene 96-well plate and the OD600 of each well was recorded. Next, […] aliquots from each well were transferred to a solvent resistant 96-well plate containing 200 μL Z buffer, 8 μL CHCl3 and 4 μL, 0.1% aq. sodium dodecylsulfate (SDS). This suspension was mixed via repetitive pipetting, after which the CHCl3 was allowed to settle. A 100 μL aliquot from each well was transferred to a fresh polystyrene 96-well plate, and 20 μL of substrate, o-nitrophenyl-β-D-galactopyranoside (ONPG, […] in phosphate buffer), was added at time zero. After the development of appropriate yellow color (ca. 15-35 minutes), the reaction was terminated by the addition of 50 μL of 1 M Na2CO3. Absorbance at 420 nm and 550 nm was measured for each well using a plate reader, and Miller units were calculated according to standard methods.
Similar methods were used for antagonism assays, except the concentration of AHL analog used was 10^4 nM, and OOHL (8b) stock solution was added to each tube such that its concentration was 100 nM (FIG. 30). […] All assays were performed in triplicate.

[4] = test system: P. aeruginosa (PAO1(pLVAgfp)) biofilm formation; test: Static biofilm assay, scanning laser confocal microscopy; format: cell-based, Pseudomonas aeruginosa; conditions: 48 h; for P. aeruginosa biofilm formation: 50 μM ligand, glass slides; for dose dependence of biofilm disruption: 50, 25 and 12.5 μM
Description: Standard static biofilm assays were performed using a P. aeruginosa (PAO1(pLVAgfp)) strain that constitutively produces GFP to facilitate visualization. Biofilms were grown in the absence of ligand (FIG. 34A) and in the presence of 50 μM synthetic ligands 7h (FIG. 34B) or 7o (FIG. 34C), for 48 h and visualized using scanning laser confocal microscopy.
Standard static biofilm assays were performed using a P. aeruginosa PAO1(pTdK-GFP). In brief, an overnight culture was diluted to an OD600 of 0.1 in fresh M9 medium containing 200 μg/mL carbenicillin. This diluted culture was added to a tube containing 50 μM antagonist. Biofilms were grown in the absence of ligand, FIG. 35A; in the presence synthetic ligand 7h, FIG. 35B; and in the presence of synthetic ligand 7o, FIG. 35C (both at 50 μM) for 48 h and visualized using scanning laser confocal microscopy. A sterilized glass coverslip was added to each tube, and the culture was incubated at 37° C. for 48 h without shaking. Coverslips were removed, washed with phosphate buffered saline, and examined using scanning laser confocal microscopy methods. Top-down Z series were collected over a distance of ca. 100 μm. Images in FIGS. 35-37 are representative of several experiments performed on separate days.

Compound	P. aeruginosa Relative fluorescence [%], control relative agonism activity ([1]; Control: relative agonism activity at 1 μM 8d (not at 12.5 μM))	IC50 [1]	P. aeruginosa Relative fluorescence [%] 12.5 μM [1]	P. aeruginosa Relative fluorescence [%] 400 μM [1]	A. tumefaciens β-galactosidase activity [Miller units] 100 nM [2]	IC50 [3]	A. tumefaciens β-galactosidase activity [Miller units] 10^4 nM [3]	A. tumefaciens β-galactosidase activity [Miller units], control agonism activity ([3]; Control: agonism activity at 100 nM 8b alone)	antagonism against LasR in P. aeruginosa [1]	activity against TraR in A. tumefaciens [3]	activity relative to previously reported antagonists 7g, 8f and 9 [3]	activity relative to the three controls (7g, 8f, 9) [1]	inhibition (LasR antagonism) ([1]; at a 12.5:1 ratio with native ligand 8d)	P. aeruginosa biofilm formation [4]	dose dependence of biofilm disruption [4]	IC50 ([1]; screened against 1 μM 8d, sigmoidal dose-response curve fit, read-out: P. aeruginosa IC50)	inhibition at 0.1 µM ([2]; read-out: inhibition (TraR antagonism))	IC50 ([3]; screened against 100 nM 8b, sigmoidal dose-response curve fit, read-out: A. tumefaciens IC50)
CCCCCCCCCC(=O)CC(=O)N[C@@H]1CCOC1=O [Compound 8d, N-(3-oxo-dodecanoyl)-L-homoserine lactone, reference compound]	100 ± 8^h %																	
CCCCCCCCCC(=O)CC(=O)Nc1ccccc1O [Compound 9, reference compound]		37.3 µM	63 ± 8%	23 ± 7%	396 ± 27 Miller units	4.7 µM	186 ± 15 Miller units											
CCCCCC(=O)CC(=O)N[C@@H]1CCOC1=O [Compound 8b, N-(3-oxo-octanoyl)-L-homoserine lactone, reference compound]								385 ± 35^g Miller units										
CCCCCCC(=O)N[C@H]1CCOC1=O [Compound 7g, N-heptanoyl-L-homoserine lactone, reference compound]		51.5 µM	78 ± 9%	29 ± 9%	226 ± 30 Miller units	0.13 µM	34 ± 6 Miller units											
O=C(CC(=O)N[C@H]1CCOC1=O)Cc1ccccc1 [Compound 8f, N-(3-oxo-4-phenylbutanoyl)-L-homoserine lactone, reference compound]		53.6 µM	82 ± 18%	27 ± 9%	310 ± 6 Miller units	0.59 µM	51 ± 22 Miller units											
O=C(CC1C=CCC1)N[C@H]1CCOC1=O (stereo partly drawn) [Compound 7k, N-(2-cyclopentene-1-acetanoyl)-L-homoserine lactone]		33.1 µM	72 ± 8%	24 ± 7%	306 ± 8 Miller units	1 µM	19 ± 8 Miller units		identified as antagonists	significant activity	one to two orders of magnitude more active							
O=C(CCCc1c[nH]c2ccccc12)N[C@@H]1CCOC1=O [Compound 7h, N-(indole-3-butanoyl)-L-homoserine lactone]		14.8 µM	52 ± 8%	14 ± 4%	245 ± 14 Miller units	1.1 µM	150 ± 14 Miller units		identified as antagonists	significant activity	one to two orders of magnitude more active	twice as active	50%	strongly inhibit	dose-dependent disruption			
O=C(Cc1ccc(Br)cc1)N[C@H]1CCOC1=O [Compound 7o, N-(4-bromophenylacetanoyl)-L-homoserine lactone]			58 ± 21%	14 ± 5%	193 ± 9 Miller units		0 ± 4 Miller units		identified as antagonists	significant activity	one to two orders of magnitude more active	twice as active		strongly inhibit	dose-dependent disruption	16.1 µM	50%	0.25 µM
